Source: US10662229B2, “Spider venom peptides and methods of use for modulating sodium channels” (priority 2016, dated 2020)
Where a SMILES comes first, the peptide text is derived from it. Bridges are numbered along the chain shown (N, C = ends).

Key:
Assay type in all cases: cell-based
hNav1.6 = target: T1, hNav1.6 (Homo sapiens, UniProt Q9UQD0); assay: FLIPR membrane potential assay, hNav1.6; conditions: for Selectivity for Nav1.7, Nav subtype 1.6: membrane potential assay
T1 construct: host or cells: HEK293
Description: (§1) HEK293 cells stably expressing hNav1.1, hNav1.2, hNav1.3, hNav1.4, hNav1.5, hNav1.6, hNav1.7 and […] (SB Drug Discovery, Glasgow, UK) were cultured in minimum essential media (MEM) containing 10% v/v FBS supplemented with L-glutamine (2 mM) and selection antibiotics G-418 (0.5 mg/mL), blasticidin (2-4 μg/mL) and zeocin (0.5 mg/mL) as recommended by the manufacturer. CHO cells stably expressing hNav1.8 in a tetracycline-inducible system (Chantest, OH, USA) were cultured in Ham's F-12 containing 10% v/v FBS and selection antibiotics as recommended by the manufacturer. To induce hNav1.8 expression, cells were cultured in the presence of tetracycline (1 μg/mL) for 24 h at 27° C. Cells were grown in a humidified 5% CO2 incubator at 37° C., grown to 70-80% confluence, and passaged every 3-4 days using TrypLE Express (Invitrogen).
(§2) Cells were plated 48 h before the assay on 384-well black walled imaging plates at a density of 10,000 to 15,000 cells per well and were loaded with red membrane potential dye for 30 min at 37° C. (Molecular Devices, CA, USA). One vial of bulk red membrane potential dye was reconstituted to a 10× stock solution with PSS and stored at −20° C. and diluted to 1× solution with PSS on the day of the assay. […] Changes in membrane potential were assessed using the FLIPR^TETRA (excitation 515 to 545 nm, emission 565 to 625 nm) every second for 300 s after adding agonists.

hNav1.8 = target: T2, hNav1.8 (Homo sapiens, UniProt Q9Y5Y9); assay: FLIPR membrane potential assay, hNav1.8; conditions: for Selectivity for Nav1.7, Nav subtype 1.8: membrane potential assay
T2 construct: host or cells: HEK293
Description: as §1, §2

hNav1.2 = target: T3, hNav1.2 (Homo sapiens, UniProt Q99250); assay: FLIPR membrane potential assay, hNav1.2; conditions: for Selectivity for Nav1.7, Nav subtype 1.2: membrane potential assay
T3 construct: host or cells: HEK293
Description: as §1, §2

hNav1.1 = target: T4, hNav1.1 (Homo sapiens, UniProt P35498); assay: FLIPR membrane potential assay, hNav1.1; conditions: for Selectivity for Nav1.7, Nav subtype 1.1: membrane potential assay
T4 construct: host or cells: HEK293
Description: as §1, §2

hNav1.4 = target: T5, hNav1.4 (Homo sapiens, UniProt P35499); assay: FLIPR membrane potential assay, hNav1.4; conditions: for Selectivity for Nav1.7, Nav subtype 1.4: membrane potential assay
T5 construct: host or cells: HEK293
Description: as §1, §2

hNav1.7 = target: T6, hNav1.7 (Homo sapiens, UniProt Q15858); assay: FLIPR membrane potential assay, hNav1.7; conditions: for Selectivity for Nav1.7, Nav subtype 1.7: membrane potential assay, reference subtype
T6 construct: host or cells: HEK293
Description: as §1, §2

hNav1.5 = target: T7, hNav1.5 (Homo sapiens, UniProt Q14524); assay: FLIPR membrane potential assay, hNav1.5; conditions: for Selectivity for Nav1.7, Nav subtype 1.5: membrane potential assay
T7 construct: host or cells: HEK293
Description: as §1, §2

hNav1.3 = target: T8, hNav1.3 (Homo sapiens, UniProt Q9NY46); assay: FLIPR membrane potential assay, hNav1.3; conditions: for Selectivity for Nav1.7, Nav subtype 1.3: membrane potential assay
T8 construct: host or cells: HEK293
Description: as §1, §2

T7 sequence (Q14524 whole entry): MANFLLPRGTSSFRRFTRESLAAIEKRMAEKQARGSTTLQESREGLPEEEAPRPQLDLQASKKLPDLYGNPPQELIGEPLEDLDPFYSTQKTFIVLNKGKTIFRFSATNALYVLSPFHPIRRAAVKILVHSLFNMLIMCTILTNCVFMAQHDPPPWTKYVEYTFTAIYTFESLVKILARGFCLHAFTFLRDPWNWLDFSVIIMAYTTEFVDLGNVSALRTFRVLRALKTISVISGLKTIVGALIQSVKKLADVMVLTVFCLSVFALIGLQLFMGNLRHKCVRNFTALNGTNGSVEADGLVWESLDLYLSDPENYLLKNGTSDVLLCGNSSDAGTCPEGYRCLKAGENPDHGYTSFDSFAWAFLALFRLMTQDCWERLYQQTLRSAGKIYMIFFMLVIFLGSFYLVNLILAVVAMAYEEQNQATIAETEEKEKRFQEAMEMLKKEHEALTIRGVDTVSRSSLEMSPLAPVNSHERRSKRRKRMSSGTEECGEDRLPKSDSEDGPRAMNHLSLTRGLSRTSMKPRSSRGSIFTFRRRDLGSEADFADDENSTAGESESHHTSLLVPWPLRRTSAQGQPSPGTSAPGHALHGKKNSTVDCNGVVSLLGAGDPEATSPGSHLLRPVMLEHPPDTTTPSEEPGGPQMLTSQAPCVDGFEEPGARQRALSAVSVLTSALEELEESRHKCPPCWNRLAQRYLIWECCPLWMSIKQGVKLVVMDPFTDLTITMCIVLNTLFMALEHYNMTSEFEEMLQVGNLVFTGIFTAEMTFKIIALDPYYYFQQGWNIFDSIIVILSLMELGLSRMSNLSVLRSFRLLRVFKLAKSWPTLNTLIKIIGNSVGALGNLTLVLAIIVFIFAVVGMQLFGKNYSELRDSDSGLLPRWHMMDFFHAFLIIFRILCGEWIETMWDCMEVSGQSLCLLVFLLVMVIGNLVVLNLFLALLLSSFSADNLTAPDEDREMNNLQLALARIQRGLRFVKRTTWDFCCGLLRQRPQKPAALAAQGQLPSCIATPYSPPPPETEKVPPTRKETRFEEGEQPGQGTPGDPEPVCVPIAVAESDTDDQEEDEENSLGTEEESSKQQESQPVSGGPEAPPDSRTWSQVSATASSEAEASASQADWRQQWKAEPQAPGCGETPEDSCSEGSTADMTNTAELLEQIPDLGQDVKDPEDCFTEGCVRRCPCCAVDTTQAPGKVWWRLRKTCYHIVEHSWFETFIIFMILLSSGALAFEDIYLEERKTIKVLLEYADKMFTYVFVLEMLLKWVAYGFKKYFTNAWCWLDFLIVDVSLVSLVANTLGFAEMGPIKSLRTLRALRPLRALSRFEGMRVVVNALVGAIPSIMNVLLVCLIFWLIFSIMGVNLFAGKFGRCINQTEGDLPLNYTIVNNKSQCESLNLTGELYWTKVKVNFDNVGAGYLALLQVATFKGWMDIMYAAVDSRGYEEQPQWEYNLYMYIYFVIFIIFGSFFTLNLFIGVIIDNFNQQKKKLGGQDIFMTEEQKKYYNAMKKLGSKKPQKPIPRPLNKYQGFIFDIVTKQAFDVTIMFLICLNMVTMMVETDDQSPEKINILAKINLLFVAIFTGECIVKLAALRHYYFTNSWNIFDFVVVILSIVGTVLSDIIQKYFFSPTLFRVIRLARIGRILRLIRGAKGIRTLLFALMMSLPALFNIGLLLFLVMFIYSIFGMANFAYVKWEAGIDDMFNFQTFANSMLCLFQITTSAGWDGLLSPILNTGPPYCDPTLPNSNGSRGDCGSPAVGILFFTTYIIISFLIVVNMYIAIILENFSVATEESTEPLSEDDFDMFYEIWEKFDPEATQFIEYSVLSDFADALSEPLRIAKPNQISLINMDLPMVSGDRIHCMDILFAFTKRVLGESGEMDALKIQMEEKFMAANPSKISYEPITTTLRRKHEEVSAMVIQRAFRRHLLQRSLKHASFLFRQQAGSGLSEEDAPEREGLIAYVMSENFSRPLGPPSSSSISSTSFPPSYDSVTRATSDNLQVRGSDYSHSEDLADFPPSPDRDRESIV
T8 sequence (Q9NY46 whole entry): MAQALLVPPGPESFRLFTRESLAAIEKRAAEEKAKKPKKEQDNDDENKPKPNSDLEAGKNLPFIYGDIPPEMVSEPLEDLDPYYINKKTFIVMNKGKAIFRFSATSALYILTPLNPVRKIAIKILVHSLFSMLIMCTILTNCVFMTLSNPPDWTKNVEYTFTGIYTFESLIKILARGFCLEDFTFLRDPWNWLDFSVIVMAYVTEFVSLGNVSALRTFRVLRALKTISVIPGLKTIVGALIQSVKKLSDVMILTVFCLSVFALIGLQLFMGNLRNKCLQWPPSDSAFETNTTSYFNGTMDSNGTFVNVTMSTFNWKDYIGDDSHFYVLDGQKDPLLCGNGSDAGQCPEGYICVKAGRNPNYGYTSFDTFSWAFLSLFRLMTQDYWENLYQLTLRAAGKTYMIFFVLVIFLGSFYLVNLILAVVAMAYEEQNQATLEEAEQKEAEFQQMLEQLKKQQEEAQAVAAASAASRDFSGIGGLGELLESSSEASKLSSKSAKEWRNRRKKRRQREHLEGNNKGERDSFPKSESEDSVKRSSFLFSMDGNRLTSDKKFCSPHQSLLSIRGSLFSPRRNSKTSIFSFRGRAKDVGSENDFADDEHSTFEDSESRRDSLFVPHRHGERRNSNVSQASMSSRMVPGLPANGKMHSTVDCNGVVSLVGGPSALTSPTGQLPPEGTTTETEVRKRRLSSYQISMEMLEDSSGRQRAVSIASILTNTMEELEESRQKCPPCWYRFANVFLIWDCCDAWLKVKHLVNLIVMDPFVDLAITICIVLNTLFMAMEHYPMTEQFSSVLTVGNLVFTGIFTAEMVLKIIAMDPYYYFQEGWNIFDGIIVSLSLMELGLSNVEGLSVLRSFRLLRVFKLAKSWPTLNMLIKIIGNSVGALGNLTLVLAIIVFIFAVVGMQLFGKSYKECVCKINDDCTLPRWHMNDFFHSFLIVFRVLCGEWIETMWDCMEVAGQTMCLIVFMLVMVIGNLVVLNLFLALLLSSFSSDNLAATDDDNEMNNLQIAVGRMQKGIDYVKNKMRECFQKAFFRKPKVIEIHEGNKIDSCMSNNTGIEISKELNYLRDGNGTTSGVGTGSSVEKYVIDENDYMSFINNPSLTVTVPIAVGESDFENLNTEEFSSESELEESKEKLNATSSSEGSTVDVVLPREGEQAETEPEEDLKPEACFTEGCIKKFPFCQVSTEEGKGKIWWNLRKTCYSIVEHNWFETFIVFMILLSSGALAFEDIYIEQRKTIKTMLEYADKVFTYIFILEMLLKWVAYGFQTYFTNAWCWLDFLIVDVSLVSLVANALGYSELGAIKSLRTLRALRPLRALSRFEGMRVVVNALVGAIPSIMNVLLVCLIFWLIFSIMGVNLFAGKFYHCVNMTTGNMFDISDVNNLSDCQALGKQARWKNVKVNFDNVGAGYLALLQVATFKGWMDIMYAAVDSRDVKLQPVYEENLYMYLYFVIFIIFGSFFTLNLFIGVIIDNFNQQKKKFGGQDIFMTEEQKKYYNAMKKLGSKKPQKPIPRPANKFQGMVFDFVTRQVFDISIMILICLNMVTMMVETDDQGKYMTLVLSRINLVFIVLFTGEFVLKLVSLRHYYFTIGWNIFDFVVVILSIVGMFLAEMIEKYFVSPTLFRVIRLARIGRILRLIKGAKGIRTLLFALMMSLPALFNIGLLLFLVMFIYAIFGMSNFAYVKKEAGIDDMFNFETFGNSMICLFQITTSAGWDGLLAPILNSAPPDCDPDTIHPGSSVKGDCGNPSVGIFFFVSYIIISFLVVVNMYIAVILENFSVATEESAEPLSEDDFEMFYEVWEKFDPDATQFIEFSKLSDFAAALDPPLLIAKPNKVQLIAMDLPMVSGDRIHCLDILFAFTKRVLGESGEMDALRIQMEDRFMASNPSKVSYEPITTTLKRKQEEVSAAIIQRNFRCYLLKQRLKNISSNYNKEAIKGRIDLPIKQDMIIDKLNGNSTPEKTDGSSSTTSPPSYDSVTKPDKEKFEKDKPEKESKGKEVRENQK

SMILES | IC50 (hNav1.6) | Selectivity for Nav1.7, Nav subtype 1.6 (hNav1.6) | IC50 (hNav1.8) | Selectivity for Nav1.7, Nav subtype 1.8 (hNav1.8) | IC50 (hNav1.2) | Selectivity for Nav1.7, Nav subtype 1.2 (hNav1.2) | IC50 (hNav1.1) | Selectivity for Nav1.7, Nav subtype 1.1 (hNav1.1) | IC50 (hNav1.4) | Selectivity for Nav1.7, Nav subtype 1.4 (hNav1.4) | IC50 (hNav1.7) | Selectivity for Nav1.7, Nav subtype 1.7 (hNav1.7) | IC50 (hNav1.5) | Selectivity for Nav1.7, Nav subtype 1.5 (hNav1.5) | IC50 (hNav1.3) | Selectivity for Nav1.7, Nav subtype 1.3 (hNav1.3)
CSCC[C@@H]1NC(=O)[C@H](Cc2ccc(O)cc2)NC(=O)[C@H](CCCNC(=N)N)NC(=O)[C@@H](NC(=O)[C@@H](N)CC(=O)O)CSSC[C@@H]2NC(=O)[C@@H]3CSSC[C@@H](C(=O)N[C@@H](C)C(=O)N[C@@H](C)C(=O)N[C@@H](CC(=O)O)C(=O)N[C@@H](Cc4ccccc4)C(=O)N[C@H](C(=O)N[C@@H](Cc4ccccc4)C(=O)N[C@H](C(=O)O)[C@@H](C)O)[C@@H](C)O)NC(=O)[C@H](Cc4ccc(O)cc4)NC(=O)[C@H](CCCCN)NC(=O)[C@H](CCSC)NC(=O)[C@H](CCCCN)NC(=O)[C@H](CCCNC(=N)N)NC(=O)[C@H](CCCCN)NC(=O)[C@H](CSSC[C@H](NC(=O)[C@H](CC(=O)O)NC(=O)CNC(=O)[C@H](Cc4ccccc4)NC1=O)C(=O)N[C@@H](CCC(=O)O)C(=O)N[C@@H](CCCCN)C(=O)N[C@@H](CC(=O)O)C(=O)N[C@@H](CCC(=O)O)C(=O)N[C@@H](CC(=O)O)C(=O)N3)NC(=O)CNC(=O)[C@H](CC(C)C)NC(=O)[C@H](Cc1c[nH]cn1)NC(=O)[C@H](CCCCN)NC2=O [[W30A]Pnc1a] (H-DCRYMFGDCEKDEDCCKHLGCKRKMKYCAADFTFT-OH; disulfide 2-16, 9-21, 15-28) | > 30 µM | 4 | > 30 µM | 4 | 24 µM | 3 | 15 µM | 2 | 12 µM | 2 | 7 µM | 1 | 6 µM | 0.9 | 11 µM | 2
CSCC[C@@H]1NC(=O)[C@H](Cc2ccc(O)cc2)NC(=O)[C@H](CCCNC(=N)N)NC(=O)[C@@H](NC(=O)[C@@H](N)CC(=O)O)CSSC[C@@H]2NC(=O)[C@@H]3CSSC[C@@H](C(=O)N[C@@H](C)C(=O)N[C@@H](Cc4c[nH]c5ccccc45)C(=O)N[C@@H](CC(=O)O)C(=O)N[C@@H](Cc4ccccc4)C(=O)N[C@H](C(=O)N[C@@H](Cc4ccccc4)C(=O)N[C@H](C(=O)O)[C@@H](C)O)[C@@H](C)O)NC(=O)[C@H](Cc4ccc(O)cc4)NC(=O)[C@H](CCCCN)NC(=O)[C@H](CCSC)NC(=O)[C@H](CCCNC(=N)N)NC(=O)[C@H](CCCNC(=N)N)NC(=O)[C@H](CCCCN)NC(=O)[C@H](CSSC[C@H](NC(=O)[C@H](CC(=O)O)NC(=O)CNC(=O)[C@H](Cc4ccccc4)NC1=O)C(=O)N[C@@H](CCC(=O)O)C(=O)N[C@@H](CCCCN)C(=O)N[C@@H](CC(=O)O)C(=O)N[C@@H](CCC(=O)O)C(=O)N[C@@H](CC(=O)O)C(=O)N3)NC(=O)CNC(=O)[C@H](CC(C)C)NC(=O)[C@H](Cc1c[nH]cn1)NC(=O)[C@H](CCCCN)NC2=O [[K24R]Pnc1a] (H-DCRYMFGDCEKDEDCCKHLGCKRRMKYCAWDFTFT-OH; disulfide 2-16, 9-21, 15-28) | > 30 µM | >900 | > 30 µM | >900 | 0.414 µM | 13 | 0.856 µM | 27 | 3 µM | 102 | 0.031 µM | 1 | > 30 µM | >900 | 8 µM | 260
